Assay results as given in patent publication US10040822B2, “Neuroprotective composition and method of use” (Brown University, priority 2012, dated 2018).
Where no end group is shown, it is not given here.

Experiments:
[1] = system: NMDA-insult to the retina; test: In vivo rat retinal toxicity model of NMDA-induced chemical stroke; details: for long-term protection against NMDA-induced retinal ganglion cell death: 14-21 day post-insult, single dosing; for long-term protection against NMDA-induced retinal ganglion cell death / NMDA-induced loss of plasma membrane selectivity in NMDA-receptive neurons / NMDA-induced caspase activation / NMDA-induced mitochondrial-induced oxidative stress in the retina / NMDA-induced poly-(ADP)ribosylolation / short-term protection against NMDA-insult: rat retina; for short-term neuronal cell death signaling: compound administered simultaneously with NMDA-induced chemical stroke; for NMDA-induced loss of plasma membrane selectivity in NMDA-receptive neurons: out to 8 hrs post-insult, compound given simultaneously with NMDA; for NMDA-induced caspase activation / NMDA-induced mitochondrial-induced oxidative stress in the retina / NMDA-induced poly-(ADP)ribosylolation: short-term, 2-4 hrs post-NMDA-insult
From the text: 7. Blockade of PARP activity attenuates poly(ADP-ribosyl)ation but offers only partial neuroprotection against NMDA-induced cell death in the rat retina. (Goebel and Winkler, J Neuro Chem, 98:1732-1745, 2006) (NMDA-induced chemical stroke in vivo rat retinal neurotoxicity model).
In a test model, the retina was protected from NMDA-induced chemical stroke. […] The compositions of this invention are useful in a variety of clinical situations, most of which are characterized by neurological insult or cellular insult typified by mitochondrial damage. Without being bound by any particular theory, untreated mitochondrial damage is believed to lead to generation of free radical species. The compositions of this invention appear to avert or curtail oxidative stress in the retina following NMDA-insult by reducing mitochondrial originated free radical generation. Without being bound by any particular theory, such activity is believed to be significant in neuroprotection arising from the compositions of this invention.
Data establish that the compounds of the present invention protect the neural tissue (retina) against a strong NMDA-insult, with particular reference to R(7) (SEQ ID NO: 5), CR(7) (SEQ ID NO: 8) and C-s-s-CR(7) (“CR(7)” disclosed as SEQ ID NO: 8).

HEK293 cells = test: Cultured HEK293 cells pretreated with peptide, chemically induced excitotoxic challenge, mitochondrial readouts; type: cell-based; details: for oxidative stress following excitotoxic challenge / stress-induced hyperpolarization of the mitochondrial membrane potentials: HEK293 cells pretreated with peptide, compared with sham-treated controls; for mitochondrial oxidative stress: further studies by the applicant's group, system not given
glaucoma = test: Glaucoma patient treated with CR(7) eye drops (Example 9); type: in vivo, human; details: Example 9, glaucoma patient, eye drops 1.25 μg per 20 μl drop, two drops morning and night, chronic
Method: A person presents with a complaint of blurry vision in their left eye for 1 week. Their IOP is above 21 mmHg. A diagnosis of glaucoma is made.
Effort is made to surgically reduce IOP. In post-surgical monitoring, IOP levels remain above normal excepted levels. To prevent retinal damage resulting from the prolonged exposure to elevated IOP. the patient is administered CR(7) (SEQ ID NO: 8) in the form of eye drops suspended in a corneal penetrating lipophilic suspension. Each 20 μl drop contains 1.25 μg of CR(7) (SEQ ID NO: 8) The total applied/treatment is 2.5 μg. Two drops are administered morning and two drops at night

retinal neurons = test: Uptake of fluorescent-tagged peptides into retinal neurons after injection into the vitreal chamber; type: in vivo; details: intravitreal, rat
Method: Attention is drawn to the uptake into brain tissues under in vivo conditions Fluorescent-tagged R(7) (SEQ ID NO: 5) and C-s-s-CR(7) (“CR(7)” disclosed as SEQ ID NO: 8) were injected into the vitreal chamber of a rat eyes and analyzed for specific uptake into retinal neurons at multiple time points post-injection. […] At longer time points (2-4 hrs post injection) the accumulation of the labeled peptides accumulated within the cytoplasm of the majority of neurons in the inner half of the retina with preferential accumulations being localized to small membrane-bound organelles surrounding the nucleus of both ganglion cells and amacrine cells as well as in exiting ganglion cell axons.

stroke = test: Stroke patient treated i.v. with polyarginine (Examples 1, 2); type: in vivo, human
Method: A person enters the emergency room and is diagnosed with an ischemic event involving the middle cerebral artery, with symptomatology onset being under 1 hr. Immediately, the patient was administered an i.v. supplemented with poly-arginine (R(7)C-s-s-C (“R(7)C” disclosed as SEQ ID NO: 12), 5 mg/kg) while blood supply to the restricted area is restored.
A person is revived following stoke in their home by EMS and is rushed to the nearest hospital 80 miles away. Upon arriving at the hospital it is determined that the patient is showing signs of weakness on their left side. […] They are immediately started an i.v. and administered poly arginine (R(7) (SEQ ID NO: 5))@ 4 mg/kg/hr over a period of 5 days to arrest post-stroke neuronal damage. The patient is monitored for recovery signs.

Traumatic Brain Injury = test: TBI patient treated i.v. with polyarginine (Example 3); type: in vivo, human; details: Example 3, severe concussion patient, i.v. 0.05 mg/kg, 3-5 days
Method: A high school football player is rushed to the emergency room of a local hospital suffering from a severe concussion following a helmet to helmet impact with an opposing player. The patient is initially unconscious on the field for over 20 min. EMS personnel arrived to find the patient responding to stimuli, but completely disoriented and unable to coordinate muscle movement, articulate speech or focus eye movements. Upon arriving at the ER, the patient is administered an i.v. containing R(7)C-s-s-C (“R(7)C” disclosed as SEQ ID NO: 12) peptide at 0.05 mg/kg. Delivery of the peptide continued until brain swelling resulting from the impact returns to normal state (3-5 days). Without being bound by any particular theory, the therapeutic is to arrest neuronal cell death resulting from these documented post-traumatic effects.

spinal cord injury = test: Spinal cord injury patient treated i.v. with polyarginine (Example 8); type: in vivo, human; details: Example 8, spinal cord injury patient, i.v. 0.15 mg/kg every other day for 30 days
Method: A person presents with a spinal cord injury following an automobile accident. The subject is conscious but unable to move their legs. […] A Th(11)-L(2) laminectomy is performed along with retrieval of foreign bodies and dura repair. Upon admission the patient is administered an i.v. containing R(7)C-s-s-C (“R(7)C” disclosed as SEQ ID NO: 12) peptide at 0.15 mg/kg.

[2] = system: neurons in the spinal cord and in the brain; test: Intrathecal and intraventricular injection of fluorescent-tagged peptides, distribution in spinal cord and brain; type: in vivo; details: fluorescent-tagged peptide
From the text: Testing addressed intrathecal and intraventricular injection of fluorescent-tagged R(7) (SEQ ID NO: 5) and C-s-s-C-R(7) (“C-R(7)” disclosed as SEQ ID NO: 8). […] This approach is a workable option for quick delivery to prevent both stroke or traumatic injury to these tissues.

[3] = Example 2, post-stroke patient, i.v. 4 mg/kg/hr over 5 days, observed over the next 30 days

| Compound | long-term protection against NMDA-induced retinal ganglion cell death [1] | short-term neuronal cell death signaling [1] | NMDA-induced loss of plasma membrane selectivity in NMDA-receptive neurons [1] | NMDA-induced caspase activation [1] | NMDA-induced mitochondrial-induced oxidative stress in the retina [1] | NMDA-induced poly-(ADP)ribosylolation [1] | oxidative stress following excitotoxic challenge (HEK293 cells) | stress-induced hyperpolarization of the mitochondrial membrane potentials (HEK293 cells) | mitochondrial oxidative stress (HEK293 cells) | short-term protection against NMDA-insult [1] | other results |
| --- | --- | --- | --- | --- | --- | --- | --- | --- | --- | --- | --- |
| N=C(N)NCCCC(NC(=O)[C@H](CCCNC(=N)N)NC(=O)C(N)CSSC[C@H](N)C(=O)O)C(=O)N[C@@H](CCCNC(=N)N)C(=O)NC(CCCNC(=N)N)C(=O)N[C@@H](CCCNC(=N)N)C(=O)NC(CCCNC(=N)N)C(=O)N[C@@H](CCCNC(=N)N)C(N)=O (stereo partly shown) [C-s-s-CR(7), C-s-s-C-R-R-R-R-R-R-R] | not significantly different from results obtained from untreated or sham-treated control retinas | block | blocked | fully block | fully block | fully block | significant attenuation | significant attenuation | significantly prevented |  |  |
| C-R-R-R-R-R-R-R (CRRRRRRR) [CR(7)] | not significantly different from results obtained from untreated or sham-treated control retinas | block | blocked | fully block | fully block | fully block | significant attenuation | significant attenuation | significantly prevented |  | neuroprotection ([1]; general statement, retina, NMDA-insult): effective when the peptide is made with either l- or d-amino acids; progression of neuronal cell death (glaucoma): no progression of neuronal cell death is detected |
| Fluorescent-tagged R(7): Fluorescent-tagged R(7) (SEQ ID NO: 5) (RRRRRRR; also: fluorescent tag, position not given here) |  |  |  |  |  |  |  |  |  |  | accumulation in retinal neurons and glia cells of ganglion and inner nuclear layers (retinal neurons; fluorescent-tagged peptide, 30 min following injection): significant accumulations; subcellular localisation of labeled peptide (double labeling) (retinal neurons; 2-4 hrs post injection): majority of these labeled puncta colocalize with mitochondrial-specific markers |
| R(7)-C: 7 arginine peptide with C-terminus cysteine (SEQ ID NO: 12) (RRRRRRRC; MOD_RES (1)..(7) Residues may be D or L configuration) | both short and long-term protection |  |  |  |  |  |  |  |  | both short and long-term protection |  |
| R(7)C-s-s-C: R(7)C (SEQ ID NO: 12) with second cysteine linked by disulfide to the terminal cysteine (RRRRRRRC(Cys); also: extra cysteine disulfide-linked to Cys8) |  |  |  |  |  |  |  |  |  |  | CT/MRI imaging of the affected region (stroke; Example 1, ischemic stroke patient, i.v. 5 mg/kg): no signs of lesioning in the affected region; daily testing of cognitive and motor systems (stroke; Example 1, ischemic stroke patient, i.v. 5 mg/kg, onset under 1 hr): no deficits in physical or mental capacities; TBI and post-concussion symptoms (Traumatic Brain Injury): remains symptom free of TBI and post-concussion effects; recovery of leg movement (spinal cord injury): substantial ability to move their legs is returned |
| RRRRRRR [R(7)] | less effective | block | blocked | fully block | fully block | fully block | significant attenuation | significant attenuation | significantly prevented | full short-term protection | muscle tone and limb recovery (stroke; [3]): increased muscle tone on the left side; speech pattern recovery (stroke; [3]): Improvement in their speech pattern |
| d-C-s-s-dCdR(7): d-isomer of C-s-s-CR(7) (CRRRRRRR; D-amino acids, disulfide-linked; MOD_RES (1)..(7) Residues are D configuration) | full short- and long-term neuroprotection |  |  |  |  |  |  |  |  | full short- and long-term neuroprotection |  |
| d-CdR(7): d-isomer of CR(7) (SEQ ID NO: 13) (CRRRRRRR; D-amino acids; MOD_RES (1)..(7) Residues are D configuration) | full short- and long-term neuroprotection |  |  |  |  |  |  |  |  | full short- and long-term neuroprotection |  |
| fluorescent-tagged CR(7): fluorescent-tagged CR(7) (SEQ ID NO: 8) (CRRRRRRR; also: fluorescent tag, position not given here) |  |  |  |  |  |  |  |  |  |  | accumulation in neurons of spinal cord and brain [2]: Preferential accumulation was noted in the neurons located within the hippocampus and cerebral cortex; crossing of the pia matter glial barrier [2]: readily crosses the pia matter glial barrier |
